Entries after “also recorded” stand apart in the source; their conditions may differ. Like-named read-outs stand apart in the source and are kept apart here.
Key:
[1] = test system: chronic tension-type headache; experiment: Prophylactic treatment with reboxetine in patients with chronic tension-type headache (headache diary); assay type: in vivo, human
Text: Prophylactic treatment with reboxetine has been given to 10 patients with chronic tension-type headache treated at the outpatient headache clinic at the Department of Neurology, Glostrup Hospital, University of Copenhagen, Denmark. There were 5 women and 5 men with a mean age of 44 years. All patients had been suffering from chronic tension-type headache for several years, and had been treatment resistant to other headache prophylactics. Before treatment, the patents underwent a general and a neurological examination and completed a diagnostic headache diary during a four-week run-in period.
The patients filled in a headache diary before and during treatment recording headache characteristics, accompanying symptoms and intake of analgesics.
In total, 10 patents have been treated with reboxetne (as the methanesulphonate salt). […] The patents were instructed to take the tablet two to three hours before bedtime. Four patients stopped treatment within the first 4 weeks due to side effects. […] Efficacy was estimated to be very good in 66% of the patients that fulfilled the treatment series.

[2] = test system: chronic tension-type headache; details: prophylactic; cited from earlier work
[3] = patients with chronic tension-type headache, 4 mg to 8 mg once daily, headache diary

Structure (SMILES): CCOc1ccccc1OC(c1ccccc1)C1CNCCO1 (stereo not drawn) [reboxetne, 2-[α-(2-ethoxy)-phenoxy-benzyl]morpholine]
- Efficacy estimated to be very good, share of the patients that fulfilled the treatment series ([1]; 6 patients that completed the treatment series): 66%
- side effects ([1]; 10 patients treated, 4 mg to 8 mg once daily): Sleeping problems and dizziness were the most common side effect; also recorded: No serious side effects were reported
- reduction in consumption of analgesics [1, 3]: 55%
- reduction in intensity [1, 3]: 78%
- reduction of AUC (intensity×duration) [1, 3]: 47%
- Headache frequency reduced ([1]; patients with chronic tension-type headache, initial dose 4 mg once daily, final dose 8 mg once daily, headache diary before vs during treatment): 10%
- patients that stopped treatment due to side effects ([1]; within the first 4 weeks, 10 patients treated): Four

Structure (SMILES): CN(C)CCC=C1c2ccccc2CCc2ccccc21 [Amitriptyline]
- reduces headache [2]: 30%
- side effects [2]: many side effects, such as sedation and dryness of mouth
